Source: PubChem BioAssay (NCI)
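How tested: cells in 96-well plates exposed to compound for 48 hours at five concentrations. Abbreviation: GI50, concentration required for 50% inhibition of growth. Definition used: TGI = concentration required for complete inhibition of growth.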

What was measured:
Assay in all cases: DTP human tumour cell line panel, 48 h
RXF 393 renal = tested on: RXF 393 renal
TK-10 renal = tested on: TK-10 renal
DU-145 prostate = tested on: DU-145 prostate
UO-31 renal = tested on: UO-31 renal
SR leukemia = tested on: SR leukemia
NCI/ADR-RES ovarian = tested on: NCI/ADR-RES ovarian
HOP-92 NSCLC = tested on: HOP-92 NSCLC
SW-620 colon = tested on: SW-620 colon
SF-268 CNS = tested on: SF-268 CNS
EKVX NSCLC = tested on: EKVX NSCLC
HL-60(TB) leukemia = tested on: HL-60(TB) leukemia
PC-3 prostate = tested on: PC-3 prostate
NCI-H522 lung = tested on: NCI-H522 lung
NCI-H23 lung = tested on: NCI-H23 lung
UACC-62 melanoma = tested on: UACC-62 melanoma
HOP-62 NSCLC = tested on: HOP-62 NSCLC
T-47D breast = tested on: T-47D breast
HCT-116 colon = tested on: HCT-116 colon
U251 CNS = tested on: U251 CNS
OVCAR-4 ovarian = tested on: OVCAR-4 ovarian
SNB-75 CNS = tested on: SNB-75 CNS
SF-539 CNS = tested on: SF-539 CNS
SK-OV-3 ovarian = tested on: SK-OV-3 ovarian
SF-295 CNS = tested on: SF-295 CNS
IGROV1 ovarian = tested on: IGROV1 ovarian
NCI-H460 lung = tested on: NCI-H460 lung
OVCAR-5 ovarian = tested on: OVCAR-5 ovarian
COLO 205 colon = tested on: COLO 205 colon
NCI-H226 lung = tested on: NCI-H226 lung
CCRF-CEM leukemia = tested on: CCRF-CEM leukemia
M14 melanoma = tested on: M14 melanoma
SN12C renal = tested on: SN12C renal
MOLT-4 leukemia = tested on: MOLT-4 leukemia
HCC-2998 colon = tested on: HCC-2998 colon
LOX IMVI melanoma = tested on: LOX IMVI melanoma
A549 NSCLC = tested on: A549 NSCLC
SNB-19 CNS = tested on: SNB-19 CNS
HCT-15 colon = tested on: HCT-15 colon
A498 renal = tested on: A498 renal
K-562 leukemia = tested on: K-562 leukemia
BT-549 breast = tested on: BT-549 breast
OVCAR-8 ovarian = tested on: OVCAR-8 ovarian
MDA-MB-435 = tested on: MDA-MB-435
786-0 renal = tested on: 786-0 renal
RPMI-8226 leukemia = tested on: RPMI-8226 leukemia
MDA-MB-231 breast = tested on: MDA-MB-231 breast
ACHN renal = tested on: ACHN renal
UACC-257 melanoma = tested on: UACC-257 melanoma
SK-MEL-5 melanoma = tested on: SK-MEL-5 melanoma
MALME-3M melanoma = tested on: MALME-3M melanoma
SK-MEL-28 melanoma = tested on: SK-MEL-28 melanoma
MCF7 breast = tested on: MCF7 breast
CAKI-1 renal = tested on: CAKI-1 renal
SK-MEL-2 melanoma = tested on: SK-MEL-2 melanoma
OVCAR-3 ovarian = tested on: OVCAR-3 ovarian
KM12 colon = tested on: KM12 colon
HT29 colon = tested on: HT29 colon
HS 578T breast = tested on: HS 578T breast

CN1CCN(Cc2ccc(NC(=O)c3cncc(C#Cc4cnc5ccc(NCCO)nn45)c3)cc2C(F)(F)F)CC1
GI50 (RXF 393 renal): 590 nM
TGI (RXF 393 renal): 1350 nM
GI50 (TK-10 renal): 1200 nM
TGI (TK-10 renal): 2990 nM
GI50 (DU-145 prostate): 486 nM
TGI (DU-145 prostate): 3470 nM
GI50 (UO-31 renal): 2000 nM
TGI (UO-31 renal): 6880 nM
GI50 (SR leukemia): 58.4 nM
TGI (SR leukemia): 1360 nM
GI50 (NCI/ADR-RES ovarian): 30100 nM
TGI (NCI/ADR-RES ovarian): 50000 nM
GI50 (HOP-92 NSCLC): 19 nM
TGI (HOP-92 NSCLC): 87.4 nM
GI50 (SW-620 colon): 118 nM
TGI (SW-620 colon): 580 nM
GI50 (SF-268 CNS): 207 nM
TGI (SF-268 CNS): 1110 nM
GI50 (EKVX NSCLC): 673 nM
TGI (EKVX NSCLC): 4010 nM
GI50 (HL-60(TB) leukemia): 138 nM
TGI (HL-60(TB) leukemia): 609 nM
GI50 (PC-3 prostate): 457 nM
TGI (PC-3 prostate): 3920 nM
GI50 (NCI-H522 lung): 187 nM
TGI (NCI-H522 lung): 940 nM
GI50 (NCI-H23 lung): 277 nM
TGI (NCI-H23 lung): 1310 nM
GI50 (UACC-62 melanoma): 532 nM
TGI (UACC-62 melanoma): 1620 nM
GI50 (HOP-62 NSCLC): 324 nM
TGI (HOP-62 NSCLC): 1420 nM
GI50 (T-47D breast): 603 nM
TGI (T-47D breast): 4220 nM
GI50 (HCT-116 colon): 92.1 nM
TGI (HCT-116 colon): 675 nM
GI50 (U251 CNS): 609 nM
TGI (U251 CNS): 1450 nM
GI50 (OVCAR-4 ovarian): 378 nM
TGI (OVCAR-4 ovarian): 2100 nM
GI50 (SNB-75 CNS): 87.4 nM
TGI (SNB-75 CNS): 414 nM
GI50 (SF-539 CNS): 61.6 nM
TGI (SF-539 CNS): 596 nM
GI50 (SK-OV-3 ovarian): 805 nM
TGI (SK-OV-3 ovarian): 3200 nM
GI50 (SF-295 CNS): 717 nM
TGI (SF-295 CNS): 4940 nM
GI50 (IGROV1 ovarian): 239 nM
TGI (IGROV1 ovarian): 2440 nM
GI50 (NCI-H460 lung): 209 nM
TGI (NCI-H460 lung): 718 nM
GI50 (OVCAR-5 ovarian): 342 nM
TGI (OVCAR-5 ovarian): 4330 nM
GI50 (COLO 205 colon): 111 nM
TGI (COLO 205 colon): 306 nM
GI50 (NCI-H226 lung): 75.8 nM
TGI (NCI-H226 lung): 1310 nM
GI50 (CCRF-CEM leukemia): 31 nM
TGI (CCRF-CEM leukemia): 17800 nM
GI50 (M14 melanoma): 231 nM
TGI (M14 melanoma): 864 nM
GI50 (SN12C renal): 172 nM
TGI (SN12C renal): 2630 nM
GI50 (MOLT-4 leukemia): 141 nM
TGI (MOLT-4 leukemia): 3860 nM
GI50 (HCC-2998 colon): 687 nM
TGI (HCC-2998 colon): 3200 nM
GI50 (LOX IMVI melanoma): 179 nM
TGI (LOX IMVI melanoma): 769 nM
GI50 (A549 NSCLC): 718 nM
TGI (A549 NSCLC): 4650 nM
GI50 (SNB-19 CNS): 901 nM
TGI (SNB-19 CNS): 3990 nM
GI50 (HCT-15 colon): 1650 nM
TGI (HCT-15 colon): 6490 nM
GI50 (A498 renal): 385 nM
TGI (A498 renal): 946 nM
GI50 (K-562 leukemia): 5 nM
TGI (K-562 leukemia): 794 nM
GI50 (BT-549 breast): 824 nM
TGI (BT-549 breast): 1620 nM
GI50 (OVCAR-8 ovarian): 698 nM
TGI (OVCAR-8 ovarian): 4050 nM
GI50 (MDA-MB-435): 123 nM
TGI (MDA-MB-435): 919 nM
GI50 (786-0 renal): 853 nM
TGI (786-0 renal): 2030 nM
GI50 (RPMI-8226 leukemia): 1010 nM
TGI (RPMI-8226 leukemia): 2970 nM
GI50 (MDA-MB-231 breast): 79.5 nM
TGI (MDA-MB-231 breast): 335 nM
GI50 (ACHN renal): 1700 nM
TGI (ACHN renal): 5860 nM
GI50 (UACC-257 melanoma): 608 nM
TGI (UACC-257 melanoma): 2230 nM
GI50 (SK-MEL-5 melanoma): 797 nM
TGI (SK-MEL-5 melanoma): 1830 nM
GI50 (MALME-3M melanoma): 135 nM
TGI (MALME-3M melanoma): 635 nM
GI50 (SK-MEL-28 melanoma): 529 nM
TGI (SK-MEL-28 melanoma): 1740 nM
GI50 (MCF7 breast): 90.3 nM
TGI (MCF7 breast): 787 nM
GI50 (CAKI-1 renal): 764 nM
TGI (CAKI-1 renal): 3470 nM
GI50 (SK-MEL-2 melanoma): 131 nM
TGI (SK-MEL-2 melanoma): 435 nM
GI50 (OVCAR-3 ovarian): 349 nM
TGI (OVCAR-3 ovarian): 2060 nM
GI50 (KM12 colon): 5 nM
TGI (KM12 colon): 1300 nM
GI50 (HT29 colon): 188 nM
TGI (HT29 colon): 1430 nM
GI50 (HS 578T breast): 115 nM
TGI (HS 578T breast): 863 nM
